Columns and labels:
Format in all cases: in vivo
[1] = system: Wheat plants of the wheat varieties JB Asano and KWS Target; assay: Male sterility after weekly root application (watering) of WL84811 to potted wheat plants, seed set of bagged ears (Example 2); details: for Average sterility relative to control after CHA: 1.0 mg/plant WL84811 in 100 ml water per treatment, 11 weekly root treatments (total 11.0 mg/plant), Zadok stage 31 to 65
Procedure: Wheat plants of the wheat varieties JB Asano and KWS Target were grown in the greenhouse in standard planting pots, bottom perforated, edge length 12 cm, height 13 cm, with one plant per pot. Twelve pots were placed into a plastic tray, bottom non-perforated with fleece inlay. Sandy loam from the field was filled into the pots ca. 2 cm below edge. Plants were grown under standard growing conditions with respect to fertilizer, watering, disease and light management. Each plant per pot was reduced to 4 tillers. The treatment was watering each pot with 0.0 mg (control) or 1.0 mg WL84811 in 100 ml tap water per pot. Each treatment was repeated on 2 plants per variety, watering with the treatment was done once a week for 11 weeks starting at Zadoks growth stage 31 until growth stage 65 of the control group. Ears were bagged to avoid unwanted cross-pollination. Bags were removed at beginning of grain filling (Zadoks stage 75 and higher), seed set was determined at kernel maturity of the control group. When ears had set seed, the ears were threshed by hand and the kernels per plant were counted. A wheat ear is called completely sterile (=100% sterility) when no kernel was developed on a bagged ear. The average number of grains per plant of the control plants was set to 0% sterility.

[2] = system: Wheat plants of the wheat varieties JB Asano and Apache; assay: Male sterility after a single root application (watering) of Clofencet to potted wheat plants, seed set of bagged ears (Example 1); details: for Average sterility relative to control: 1 root treatment, Zadok stage 31
Procedure: Wheat plants of the wheat varieties JB Asano and Apache were grown in the greenhouse in standard planting pots, bottom perforated, edge length 12 cm, height 13 cm, with one plant per pot. Twelve pots were placed into a plastic tray, bottom non-perforated with fleece inlay (e.g. available at Hermann Meyer KG unter article no. 44 54 11). Standard greenhouse growing substrate soil (bedding substrate 1 of Klasmann-Deilmann GmbH) was filled into the pot ca. 2 cm below edge. Plants were grown under standard growing conditions with respect to fertilizer, watering, disease and light management. Each plant was reduced to 4 tillers. The necessary active amount of Clofencet per plant was calculated according to the standard foliar spray application protocol of 5.42 kg per hectare assuming 400 ears per square meter taking the higher tiller number of potted plants into account (average number of ears per plant in the field is typically 1.15 but it was 4 in our potted plants, so the dose rate for root application per plant, i.e. per pot, was adjusted upward). At Zadoks growth stage 31 the plants were watered with 0.0 mg (control), 10.84 mg, 16.26 mg and 21.68 mg, respectively, of Clofencet in 200 ml tap water per pot. Each treatment was repeated on 12 plants, whereas the highest concentration was repeated on 24 plants. Before flowering time (Zadoks stage 57 of control group) ears were bagged to avoid unwanted cross-pollination. Bags were removed at beginning of grain filling (Zadoks stage 75 and higher), seed set was determined at kernel ripeness of the control group. When ears carried mature seeds, the ears were threshed with a hand-threshing device (Baumann Dreschhexe #4.701.200) and the kernels per plant were counted. A wheat ear is called completely sterile (=100% sterility) when no kernel developed on a bagged ear. The average number of grains per plant of the control plants was set to 0% sterility.

[3] = system: Wheat plants of the wheat varieties JB Asano and Apache; assay: Female fertility: seed set of Clofencet-treated male sterile plants after pollination with pollen from an untreated control plant (Example 3); details: for Average seed set of Clofencet treated plants after pollination with wheat pollen (rel. to control): 1 root treatment, Zadok stage 31
From the text: Male sterile plants generated by Clofencet treatment as described in Example 1 were used. Before single bagging the 4 ears of each plant at Zadoks stages 55-59, flowers were clipped to facilitate pollination. At flowering time (spikelets wide open) three male-sterile ears (no pollen in the transparent bags) were pollinated with pollen from an untreated control plant of the same wheat variety. One sterile ear was not pollinated to cross check the efficacy of the Clofencet treatment. Bags were removed at beginning of grain filling (Zadoks stage 75 and higher), seed set was determined at kernel maturity. If ears had set seed, the ears were threshed with a hand-threshing device (Baumann Dreschhexe #4.701.200) and the kernels per plant were counted. The average number of grains per plant of the control plants was set to 100% seed set.

[4] = variety Apache, 10.84 mg/plant Clofencet in 200 ml water
[5] = variety Apache, 16.26 mg/plant Clofencet in 200 ml water
[6] = variety Apache, 21.68 mg/plant Clofencet in 200 ml water
[7] = variety JB Asano, 10.84 mg/plant Clofencet in 200 ml water
[8] = variety JB Asano, 16.26 mg/plant Clofencet in 200 ml water
[9] = variety JB Asano, 21.68 mg/plant Clofencet in 200 ml water

`O=C(O)C1CNC1` [WL84811, azetidine-3-carboxylic acid] was tested, and the “generation of male sterility” value ([1]; regular weekly watering with 1.0 mg, root treatment) was “very effective to generate male sterility”, the “Average sterility relative to control after CHA” value ([1]; variety JB Asano) was 100% and the “Average sterility relative to control after CHA” value ([1]; variety KWS Target) was 100%. For the same molecule, the “seed set of treated plants bagged before flowering” value ([1]; weekly 1.0 mg root treatment, bagged before flowering) was “No plant”.
With `CCc1c(C(=O)O)c(=O)cnn1-c1ccc(Cl)cc1` [Clofencet, 2-(4-chlorophenyl)-3-ethyl-2,5-dihydro-5-oxopyridazine-4-carboxylic acid] the “further effect on male sterility at higher doses (data not shown)” value ([2]; doses of active substance higher than 21.68 mg per plant) was “do not have any further positive effect”, the “male sterility” value ([2]; single root application dose of 10.84 mg per plant with four tillers at growth stage 31) was “satisfying amount of average male sterility” and the “male sterility” value ([2]; single root application of 16.26 mg per plant at growth stage 31) was ~100%. The “Average sterility relative to control” value [2, 4] was 91.88%, the “Average sterility relative to control” value [2, 5] was 98.69% and the “Average sterility relative to control” value [2, 6] was 99.64%. For the same molecule, the “Average sterility relative to control” value [2, 7] was 94.72%, the “Average sterility relative to control” value [2, 8] was 99.96% and the “Average sterility relative to control” value [2, 9] was 98.65%. For the same molecule, the “seed set of bagged plants” value ([2]; watered once with an active dose of 16.26 mg or more in Zadoks stage 31) was “Almost no plants”, the “female fertility of the treated plants” value ([3]; root treatment once, pollinated with pollen of untreated control plants) was “does not harm the female fertility” and the “seed set compared to the control with 100% seed set” value ([3]; variety Apache) was “even seems to enhance seed set”. The “Average seed set of Clofencet treated plants after pollination with wheat pollen (rel. to control)” value (from here on “Average seed set”) [3, 4] was 101%, the “Average seed set” value [3, 5] was 115% and the “Average seed set” value [3, 6] was 107%. For the same molecule, the “Average seed set” value [3, 7] was 98%, the “Average seed set” value [3, 8] was 94% and the “Average seed set” value [3, 9] was 75%.
